How the values were obtained:
[1] = 1-Octanol/aqueous buffer partition coefficient, logD of the compound at pH 7.4 by chromatographic method based UV-visible detector; assay type: physicochemical
Glutamate receptor 2 = Glutamate receptor 2 (Homo sapiens, UniProt P42262); assay: Displacement of [3H]-HBT1 from His-tagged GluA2-AMPA receptor LBD (unknown origin) in presence of glutamate by scintillation proximity assay
[2] = molecular target: Glutamate receptor ionotropic, NMDA 2A (Homo sapiens, UniProt Q05586+Q12879); assay: Positive allosteric modulator activity at GluN2A NMDA receptor (unknown origin) expressed in CHO cells co-expressing GluN1a in the presence of L-glutamate and glycine by Ca2+ influx assay; assay type: cell-based
[3] = Metabolic stability in rat liver microsomes assessed as clearance at 1 uM incubated for 15 to 30 mins in the presence of NADPH generating system by LC-MS/MS analysis; assay type: ADME, Microsome; conditions: time 15-30 min, read-out: CLH
[4] = Metabolic stability in human liver microsomes assessed as clearance at 1 uM incubated for 15 to 30 mins in the presence of NADPH generating system by LC-MS/MS analysis; assay type: ADME, Microsome; conditions: time 15-30 min, read-out: CLH
[5] = molecular target: Glutamate receptor ionotropic, NMDA 2C (Homo sapiens, UniProt Q05586+Q14957); assay: Positive allosteric modulator activity at GluN2C NMDA receptor (unknown origin) expressed in CHO cells co-expressing GluN1a in the presence of L-glutamate and glycine by Ca2+ influx assay; assay type: cell-based
[6] = Drug concentration in Sprague-Dawley rat brain at 10 mg/kg, po measured after 1 hrs by LC-MS/MS analysis; assay type: ADME, organism-based; conditions: read-out: Ct
[7] = molecular target: Glutamate receptor ionotropic, NMDA 2D (Homo sapiens, UniProt O15399+Q05586); assay: Positive allosteric modulator activity at GluN2D NMDA receptor (unknown origin) expressed in CHO cells co-expressing GluN1a in the presence of L-glutamate and glycine by Ca2+ influx assay; assay type: cell-based
[8] = Drug concentration in Sprague-Dawley rat brain at 10 mg/kg, po measured after 0.5 hrs by LC-MS/MS analysis; assay type: ADME, organism-based; conditions: read-out: Ct
[9] = Drug concentration in Sprague-Dawley rat plasma at 10 mg/kg, po measured after 0.5 hrs by LC-MS/MS analysis; assay type: ADME, organism-based
[10] = Drug concentration in Sprague-Dawley rat plasma at 10 mg/kg, po measured after 2 hrs by LC-MS/MS analysis; assay type: ADME, organism-based
[11] = Drug concentration in Sprague-Dawley rat plasma at 10 mg/kg, po measured after 1 hrs by LC-MS/MS analysis; assay type: ADME, organism-based
[12] = molecular target: Glutamate receptor ionotropic, NMDA 2B (Homo sapiens, UniProt Q05586+Q13224); assay: Positive allosteric modulator activity at GluN2B NMDA receptor (unknown origin) expressed in CHO cells co-expressing GluN1a in the presence of L-glutamate and glycine by Ca2+ influx assay; assay type: cell-based
[13] = Drug concentration in Sprague-Dawley rat brain at 10 mg/kg, po measured after 2 hrs by LC-MS/MS analysis; assay type: ADME, organism-based; conditions: read-out: Ct

Sequence of Glutamate receptor 2 (P42262 whole entry, the tested form may be a part): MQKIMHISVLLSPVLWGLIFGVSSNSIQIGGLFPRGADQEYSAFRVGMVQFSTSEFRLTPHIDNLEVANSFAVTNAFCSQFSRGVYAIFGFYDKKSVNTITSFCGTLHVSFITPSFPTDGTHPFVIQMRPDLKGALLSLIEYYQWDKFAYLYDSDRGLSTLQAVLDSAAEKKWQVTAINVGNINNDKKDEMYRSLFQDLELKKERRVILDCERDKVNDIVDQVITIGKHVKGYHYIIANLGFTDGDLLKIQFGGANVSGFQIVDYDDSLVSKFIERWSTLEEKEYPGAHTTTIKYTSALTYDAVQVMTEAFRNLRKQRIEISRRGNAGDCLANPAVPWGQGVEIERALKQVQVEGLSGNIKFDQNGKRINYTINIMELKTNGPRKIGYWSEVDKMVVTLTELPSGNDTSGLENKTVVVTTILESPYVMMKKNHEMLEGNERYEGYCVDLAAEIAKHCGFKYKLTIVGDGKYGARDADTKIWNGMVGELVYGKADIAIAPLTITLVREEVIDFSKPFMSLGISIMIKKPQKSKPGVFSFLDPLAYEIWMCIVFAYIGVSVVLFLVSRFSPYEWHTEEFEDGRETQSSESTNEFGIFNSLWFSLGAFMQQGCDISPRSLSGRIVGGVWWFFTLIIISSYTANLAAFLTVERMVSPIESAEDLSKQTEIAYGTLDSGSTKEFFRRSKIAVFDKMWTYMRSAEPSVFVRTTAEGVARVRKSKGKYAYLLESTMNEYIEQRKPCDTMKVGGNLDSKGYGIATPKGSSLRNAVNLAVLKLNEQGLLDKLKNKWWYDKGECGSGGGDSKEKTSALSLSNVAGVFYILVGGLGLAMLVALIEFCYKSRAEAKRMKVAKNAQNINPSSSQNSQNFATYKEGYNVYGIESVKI
Sequence of Glutamate receptor ionotropic, NMDA 2A (Q12879 whole entry, one chain of several): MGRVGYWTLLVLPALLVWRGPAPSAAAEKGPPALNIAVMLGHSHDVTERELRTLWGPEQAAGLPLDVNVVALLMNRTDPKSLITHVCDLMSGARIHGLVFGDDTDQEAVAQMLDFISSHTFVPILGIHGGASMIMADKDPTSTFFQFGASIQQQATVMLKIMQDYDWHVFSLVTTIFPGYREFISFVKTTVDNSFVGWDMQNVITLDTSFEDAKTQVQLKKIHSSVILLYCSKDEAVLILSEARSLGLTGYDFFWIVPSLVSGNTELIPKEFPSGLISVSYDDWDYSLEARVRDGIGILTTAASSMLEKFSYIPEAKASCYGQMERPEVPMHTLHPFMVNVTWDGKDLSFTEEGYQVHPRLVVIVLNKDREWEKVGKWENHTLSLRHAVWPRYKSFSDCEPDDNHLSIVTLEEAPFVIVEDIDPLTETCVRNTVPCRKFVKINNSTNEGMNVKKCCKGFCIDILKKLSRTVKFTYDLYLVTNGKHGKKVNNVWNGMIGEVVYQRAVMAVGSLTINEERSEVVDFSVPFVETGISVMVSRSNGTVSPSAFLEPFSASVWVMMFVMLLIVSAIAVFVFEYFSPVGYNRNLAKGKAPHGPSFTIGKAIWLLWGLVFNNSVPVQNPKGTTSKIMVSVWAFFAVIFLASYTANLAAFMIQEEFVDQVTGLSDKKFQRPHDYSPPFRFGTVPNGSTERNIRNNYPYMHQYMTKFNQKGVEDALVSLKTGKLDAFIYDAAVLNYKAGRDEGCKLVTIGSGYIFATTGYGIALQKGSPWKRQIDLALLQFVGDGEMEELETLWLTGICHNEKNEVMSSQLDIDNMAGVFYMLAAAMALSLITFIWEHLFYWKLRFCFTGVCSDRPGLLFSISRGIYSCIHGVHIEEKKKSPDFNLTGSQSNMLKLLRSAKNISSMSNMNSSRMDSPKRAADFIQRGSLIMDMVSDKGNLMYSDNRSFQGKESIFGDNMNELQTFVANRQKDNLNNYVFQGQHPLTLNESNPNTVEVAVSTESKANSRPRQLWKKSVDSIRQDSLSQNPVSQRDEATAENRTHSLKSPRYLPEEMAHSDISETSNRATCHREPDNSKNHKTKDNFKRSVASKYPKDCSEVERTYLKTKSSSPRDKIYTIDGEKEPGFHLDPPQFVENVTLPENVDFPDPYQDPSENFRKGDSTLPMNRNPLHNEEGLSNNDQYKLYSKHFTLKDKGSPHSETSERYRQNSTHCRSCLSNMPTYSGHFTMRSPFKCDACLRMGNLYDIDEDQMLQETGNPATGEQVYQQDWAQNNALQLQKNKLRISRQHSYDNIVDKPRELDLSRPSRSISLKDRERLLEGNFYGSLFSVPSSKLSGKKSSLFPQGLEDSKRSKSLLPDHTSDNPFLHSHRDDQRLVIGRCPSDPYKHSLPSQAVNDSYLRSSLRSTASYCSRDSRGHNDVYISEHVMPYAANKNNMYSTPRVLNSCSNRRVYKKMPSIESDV
Sequence of Glutamate receptor ionotropic, NMDA 2D (O15399 whole entry, one chain of several): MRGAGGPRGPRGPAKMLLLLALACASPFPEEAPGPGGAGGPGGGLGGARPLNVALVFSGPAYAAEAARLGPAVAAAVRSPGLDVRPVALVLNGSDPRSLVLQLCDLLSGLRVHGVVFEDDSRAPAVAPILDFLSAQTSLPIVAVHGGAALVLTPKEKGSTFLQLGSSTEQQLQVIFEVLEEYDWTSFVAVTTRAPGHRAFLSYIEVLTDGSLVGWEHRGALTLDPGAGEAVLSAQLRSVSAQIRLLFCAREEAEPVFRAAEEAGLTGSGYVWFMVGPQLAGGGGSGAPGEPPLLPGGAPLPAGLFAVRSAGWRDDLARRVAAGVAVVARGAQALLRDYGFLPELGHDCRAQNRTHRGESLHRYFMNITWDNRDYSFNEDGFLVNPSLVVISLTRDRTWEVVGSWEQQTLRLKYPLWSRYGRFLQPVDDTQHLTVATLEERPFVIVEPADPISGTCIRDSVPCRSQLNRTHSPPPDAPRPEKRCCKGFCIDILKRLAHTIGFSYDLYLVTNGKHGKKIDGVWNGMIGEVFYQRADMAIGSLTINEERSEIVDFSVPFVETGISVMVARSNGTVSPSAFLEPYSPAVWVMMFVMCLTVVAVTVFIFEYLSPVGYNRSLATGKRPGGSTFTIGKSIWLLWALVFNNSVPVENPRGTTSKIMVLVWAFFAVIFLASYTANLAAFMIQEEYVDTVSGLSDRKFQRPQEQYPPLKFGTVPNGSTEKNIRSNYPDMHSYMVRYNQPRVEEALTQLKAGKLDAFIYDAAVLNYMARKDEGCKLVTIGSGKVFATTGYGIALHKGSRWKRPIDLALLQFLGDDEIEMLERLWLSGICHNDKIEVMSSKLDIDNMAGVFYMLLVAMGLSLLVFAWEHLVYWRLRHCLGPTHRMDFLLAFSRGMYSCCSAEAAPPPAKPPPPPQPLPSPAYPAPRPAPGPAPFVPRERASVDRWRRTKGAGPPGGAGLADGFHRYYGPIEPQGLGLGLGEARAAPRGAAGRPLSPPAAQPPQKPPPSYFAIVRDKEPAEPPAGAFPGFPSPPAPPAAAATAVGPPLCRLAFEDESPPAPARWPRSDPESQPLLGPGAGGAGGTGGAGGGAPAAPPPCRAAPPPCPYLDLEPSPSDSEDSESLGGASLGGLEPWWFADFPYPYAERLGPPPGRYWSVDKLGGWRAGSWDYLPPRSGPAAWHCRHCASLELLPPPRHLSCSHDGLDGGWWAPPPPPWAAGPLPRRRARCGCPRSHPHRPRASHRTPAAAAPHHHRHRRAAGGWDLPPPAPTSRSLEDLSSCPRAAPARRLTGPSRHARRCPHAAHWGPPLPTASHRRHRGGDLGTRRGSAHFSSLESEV
Sequence of Glutamate receptor ionotropic, NMDA 2C (Q14957 whole entry, one chain of several): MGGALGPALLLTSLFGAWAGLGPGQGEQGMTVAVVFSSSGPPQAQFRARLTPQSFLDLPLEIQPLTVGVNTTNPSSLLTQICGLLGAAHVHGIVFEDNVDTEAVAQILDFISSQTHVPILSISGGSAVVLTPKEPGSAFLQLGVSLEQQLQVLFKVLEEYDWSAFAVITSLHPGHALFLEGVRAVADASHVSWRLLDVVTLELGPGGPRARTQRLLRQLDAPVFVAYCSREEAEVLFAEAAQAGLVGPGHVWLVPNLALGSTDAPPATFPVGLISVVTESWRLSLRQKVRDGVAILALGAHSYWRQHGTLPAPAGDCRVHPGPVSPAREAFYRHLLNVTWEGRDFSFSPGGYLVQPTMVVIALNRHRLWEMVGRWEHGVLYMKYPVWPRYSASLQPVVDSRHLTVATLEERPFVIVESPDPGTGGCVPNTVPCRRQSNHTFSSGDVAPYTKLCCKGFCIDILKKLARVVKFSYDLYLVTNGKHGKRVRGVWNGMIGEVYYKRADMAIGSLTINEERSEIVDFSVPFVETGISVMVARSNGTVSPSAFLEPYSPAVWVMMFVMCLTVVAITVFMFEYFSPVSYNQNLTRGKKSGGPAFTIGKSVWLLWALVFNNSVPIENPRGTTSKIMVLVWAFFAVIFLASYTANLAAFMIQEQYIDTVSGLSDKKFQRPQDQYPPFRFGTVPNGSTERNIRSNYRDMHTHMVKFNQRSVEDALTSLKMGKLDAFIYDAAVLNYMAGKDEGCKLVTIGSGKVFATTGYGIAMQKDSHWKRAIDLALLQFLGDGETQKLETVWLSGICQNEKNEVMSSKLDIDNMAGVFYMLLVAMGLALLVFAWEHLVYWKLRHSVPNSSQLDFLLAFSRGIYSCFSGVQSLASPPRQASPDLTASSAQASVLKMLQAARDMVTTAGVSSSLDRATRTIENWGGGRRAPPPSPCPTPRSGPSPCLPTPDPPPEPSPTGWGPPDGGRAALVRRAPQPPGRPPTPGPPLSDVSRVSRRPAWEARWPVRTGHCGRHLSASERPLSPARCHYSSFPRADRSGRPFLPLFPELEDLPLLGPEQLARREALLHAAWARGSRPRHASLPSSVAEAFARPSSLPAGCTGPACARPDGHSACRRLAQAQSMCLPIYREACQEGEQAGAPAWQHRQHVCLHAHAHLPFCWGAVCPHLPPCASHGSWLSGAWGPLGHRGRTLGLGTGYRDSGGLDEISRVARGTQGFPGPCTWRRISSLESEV

chromatographic logD [1] | IC50 (Glutamate receptor 2) | EC50 [2] | microsomal CLint at 1 µM [3] | microsomal CLint at 1 µM [4] | other results | Structure (SMILES)
2.4 | 4.3 µM | > 30 µM | – | – | – | CCN(Cc1cc(C)n(CCCC#N)c(=O)c1)c1ccc(F)cc1
1.4 | > 30 µM | – | – | – | – | Cc1cc(Cn2nc(C(F)F)cc2Cl)cc(=O)n1C[C@H]1C[C@@H]1C#N
1.8 | 21 µM | – | 22 µL/min/mg | 2 µL/min/mg | – | Cc1cc(Cn2nc(C(F)(F)F)cc2Cl)cc(=O)n1C[C@H]1C[C@@H]1C#N
4 | > 30 µM | 12 µM | – | – | – | CCCc1cc(CN(CC)c2ccc(F)cc2)cc(=O)n1CC1CC1
3.2 | 9.9 µM | – | – | – | – | CCN(Cc1cc(C)n(CC2CC2)c(=O)c1)c1ccc(F)cc1
2.4 | 11 µM | – | > 768 µL/min/mg | 48 µL/min/mg | – | CCN(Cc1cc(C)n(C[C@H]2C[C@@H]2C#N)c(=O)c1)c1ccc(F)cc1
2.3 | > 30 µM | – | 75 µL/min/mg | – | – | Cc1cc(Cc2cccc(Cl)c2)cc(=O)n1C[C@H]1C[C@@H]1C#N
2.4 | > 30 µM | > 30 µM | 26 µL/min/mg | 15 µL/min/mg | – | Cc1cccc(Cc2cc(C)n(C[C@H]3C[C@@H]3C#N)c(=O)c2)c1
3.6 | – | 13 µM | – | – | – | CCc1cc(CN(CC)c2ccc(F)cc2)cc(=O)n1CC1CC1
3.6 | 1.2 µM | 23 µM | – | – | – | CCN(Cc1cc(C)n(CC2CCC2)c(=O)c1)c1ccc(F)cc1
2.9 | 2.3 µM | 13 µM | – | – | – | CCN(Cc1cc(=O)n(CC2CC2)c(C)n1)c1ccc(F)cc1
2.8 | 0.75 µM | – | – | – | – | CCN(Cc1ccn(CC2CC2)c(=O)c1)c1ccc(F)cc1
2.4 | 16 µM | – | – | – | – | CCN(Cc1cc(C)n(C[C@@H]2C[C@H]2C#N)c(=O)c1)c1ccc(F)cc1
2.5 | > 30 µM | – | 72 µL/min/mg | 24 µL/min/mg | – | Cc1cc(Cc2cccc(Br)c2)cc(=O)n1C[C@H]1C[C@@H]1C#N
1.6 | > 30 µM | – | 14 µL/min/mg | 28 µL/min/mg | EC50 [5]: 1.9 µM; concentration at 1 h [6]: 111 ng/g; EC50 [7]: 5.1 µM; concentration at 0.5 h [8]: 262 ng/g; concentration at 0.5 h [9]: 926 ng/mL; concentration at 2 h [10]: 362 ng/mL; concentration at 1 h [11]: 590 ng/mL; EC50 [12]: > 30 µM; concentration at 2 h [13]: 71 ng/g | Cc1cc(Cn2nc(Br)cc2Cl)cc(=O)n1C[C@H]1C[C@@H]1C#N
1.6 | > 30 µM | – | 22 µL/min/mg | 12 µL/min/mg | – | Cc1cc(Cn2nc(Cl)cc2Cl)cc(=O)n1C[C@H]1C[C@@H]1C#N
2.5 | 2.3 µM | > 30 µM | – | – | – | CCN(Cc1cc(C)n(CC2(C#N)CC2)c(=O)c1)c1ccc(F)cc1
3.5 | 5.5 µM | > 30 µM | – | – | – | CCN(Cc1cc(C)n(Cc2ccccc2)c(=O)c1)c1ccc(F)cc1
– | 10 µM | – | – | – | – | CCN(Cc1cc(C)n(C[C@@H]2C[C@H]2C#N)c(=O)c1)c1ccc(F)cc1 (racemic)

Reference: ChEMBL document CHEMBL5241126, “Design and synthesis of 6-methylpyridin-2-one derivatives as novel and potent GluN2A positive allosteric modulators for the treatment of cognitive impairment” (Bioorg Med Chem, 2023)
